Patent EP1351977B1, “ANTIMICROBIAL PSEUDOPEPTIDES” (INSTITUT NATIONAL DE LA RECHERCHE AGRONOMIQUE (INRA), priority 2001, dated 2004)
Where two headings read alike, the source gives them in different places. Ends that are not written are not given here.

How the values were obtained:
Type in all cases: cell-based
Alternaria brassicae = assay: Antifungal growth inhibition test in liquid medium
Botrytis cinerea sp = assay: Antifungal growth inhibition test in liquid medium
Cladosporium sp = assay: Antifungal growth inhibition test in liquid medium
Piricularia oryzae sp = system: Piricularia oryzae sp
Septoria tritici sp = assay: Antifungal growth inhibition test in liquid medium
Escherichia coli CIP548 = assay: Bacterial growth inhibition test in Petri dish (solid medium), MIC; details: MIC extrapolated from inhibition diameter vs log10 concentration
Salmonella sp. = assay: as above; details: MIC extrapolated from inhibition diameter vs log10 concentration
Protocol: (§1) Deux tests ont été utilisés pour mesurer l'activité antibactérienne des pseudopeptides, un test d'inhibition de la croissance bactérienne en microplaques (de 96 puits) en milieu liquide et un test d'inhibition de la croissance bactérienne en boîte de Pétri en milieu solide. • * Test en microplaques: La culture bactérienne à tester est prélevée en phase exponentielle, puis diluée au 1/500^ème dans du milieu liquide TSB frais. Chaque puits de la microplaque est rempli avec 100 µl de suspension bactérienne diluée. Dans le premier puits, 100 µl de l'échantillon de pseudopeptide à tester est ajouté à la suspension bactérienne, puis l'échantillon est dilué de 2 en 2 en transférant d'un puits à l'autre 100 µl de suspension. La lecture de la microplaque se fait en mesurant la densité optique à […] (DO600nm) après 24h d'incubation à 28°C ou 37°C selon les bactéries cibles. Connaissant la concentration en pseudopeptide de l'échantillon de départ, ce test permet de déterminer la valeur de la CMI (Concentration Minimale d'Inhibition de la croissance bactérienne). Dans ce test, la CMI correspond à la concentration de l'échantillon pour lequel la DO600nm est inférieure à celle du témoin de culture. • * Test en boîte de Pétri: La culture bactérienne à tester est prélevée en phase exponentielle, puis incorporée à 10 ml d'une gélose dite "sous-couche" (Agarose 1% poids/vol; NaCl 100 mM; Trypcase 0.03 % poids/vol; Tampon phosphate 10 mM pH7.4) à raison de 2.10^5 bactéries/ml. Le mélange est coulé dans une boîte de Pétri ordinaire. 9 puits d'environ 10 µl de volume sont formés dans la "sous-couche" à l'aide d'un embout de pipette stérile de 10 ml. Ces puits sont remplis avec une série de dilutions des pseudopeptides à tester (concentration initiale 500 µg/ml, et dilution de deux en deux jusqu'à 1,95 µg/ml). Après diffusion à température ambiante pendant 2h, une gélose dite "sur-couche" (Agarose 1% wt/vol; Trypcase 6 % wt/vol; Tampon phosphate 10 mM pH7.4) est ajoutée sur la sous-couche à raison de 5 à 10 ml. Après solidification, l'ensemble est mis à incuber pendant une nuit. Le diamètre d'inhibition de la culture bactérienne autour de chaque puits est mesuré en mm; il existe une relation linéaire entre le diamètre d'inhibition et le log10 de la concentration en pseudopeptide qui permet de déterminer par extrapolation la valeur de la CMI.
Une première série de résultats a été obtenue en utilisant le test en boîte de Pétri vis-à-vis de bactéries non pathogènes issues de la collection de Travaux pratiques du laboratoire de Pathologie Comparée de l'Université de Montpellier (France). Dans cette série, les pseudopeptides des pics 5, 7, 8,10 et 11 ont été testés (Tableau 4).

[1] = system: Proteus vulgaris CIP58.60; assay: as above; details: MIC extrapolated from inhibition diameter vs log10 concentration
[2] = system: Staphylococcus epidermidis; assay: as above; details: MIC extrapolated from inhibition diameter vs log10 concentration
Streptococcus Gr. D = assay: as above; details: MIC extrapolated from inhibition diameter vs log10 concentration
Pseudomonas fluorescens = assay: as above; details: MIC extrapolated from inhibition diameter vs log10 concentration
Enterobacter aerogenes = assay: Bacterial growth inhibition test in microplates (liquid medium), MIC, nosocomial bacteria; details: microplate test, TSB, 24h; nosocomial strain
Protocol: as §1
(§2) Une seconde série de résultats a été obtenue en utilisant le test en microplaques vis-à-vis de bactéries nosocomiales issues de la collection du laboratoire de Bactériologie Médicale du Centre Hospitalier Universitaire de Nîmes (France). Dans cette série, seul le pseudopeptide contenu dans la fraction 8 a été testé (Tableau 5).

Enterococcus sp. = assay: as above; details: microplate test, TSB, 24h; nosocomial strain
Protocol: as §1, §2

Pseudomonas aeruginosa = assay: as above; details: microplate test, TSB, 24h; nosocomial strain
Protocol: as §1, §2

Staphylococcus aureus = assay: as above; details: microplate test, TSB, 24h; nosocomial strain
Protocol: as §1, §2

[3] = system: Stenotrophomonas maltophilia; assay: as above; details: microplate test, TSB, 24h; nosocomial strain
Protocol: as §1, §2

bactériophage lambda = assay: Antiviral test, lysis plaque method in Top-Agar on E. coli SURE
Protocol: L'activité antivirale des pseudopeptides selon l'invention a été démontrée vis-à-vis du bactériophage lambda. Le bactériophage λ-ZAP est naturellement lytique sur la souche E. coli SURE (Stratagène). Cette activité lytique est mesurable par la méthode des plages de lyse en gélose Top-Agar. 2 µl d'une suspension de virus à 3,5 .10^5 pfu/ml dans du tampon SM ont été mis en présence de 2 µl du pseudopeptides compris dans le pic 8 à 0,5 mg/ml dans de l'eau pure. Après 15 min d'incubation à 37°C, la suspension est mélangée à 3,5 ml de Top-Agar pré-ensemencée avec E. coli SURE à 2 .10^5 cfu/ml. La concentration de pseudopeptide dans la gélose Top-Agar est inférieure à la CMI vis-à-vis de E. coli SURE. Le mélange est coulé en boîte de Pétri puis mis à incuber à 37°C pendant 12h. Le résultat est donné dans le tableau 6.

Substance: Composé 8: pseudopeptide du pic n° 8 de Xenorhabdus nematophilus F1; Famille 1: Lys Lys Lys Lys Lys Gly; 1066 Da; structure en Figure 2 (KKKKKG; also: pseudopeptide modifications)
- pourcentage d'inhibition de croissance (Alternaria brassicae; 10 ppm): 82%
- pourcentage d'inhibition de croissance (Alternaria brassicae; 20 ppm): 82%
- pourcentage d'inhibition de croissance (Alternaria brassicae; 40 ppm): 83%
- pourcentage d'inhibition de croissance (Botrytis cinerea sp; 10 ppm): 52%
- pourcentage d'inhibition de croissance (Botrytis cinerea sp; 20 ppm): 95%
- pourcentage d'inhibition de croissance (Botrytis cinerea sp; 40 ppm): 94%
- pourcentage d'inhibition de croissance (Cladosporium sp; 10 ppm): 94%
- pourcentage d'inhibition de croissance (Cladosporium sp; 20 ppm): 94%
- pourcentage d'inhibition de croissance (Cladosporium sp; 40 ppm): 94%
- pourcentage d'inhibition de croissance (Piricularia oryzae sp; 10 ppm): 30%
- pourcentage d'inhibition de croissance (Piricularia oryzae sp; 20 ppm): 35%
- pourcentage d'inhibition de croissance (Piricularia oryzae sp; 40 ppm): 45%
- pourcentage d'inhibition de croissance (Septoria tritici sp; 10 ppm): 87%
- pourcentage d'inhibition de croissance (Septoria tritici sp; 20 ppm): 88%
- pourcentage d'inhibition de croissance (Septoria tritici sp; 40 ppm): 86%
- CMI (Escherichia coli CIP548): 7,5 µg/ml
- CMI (Salmonella sp.): 30 µg/mL
- CMI [1]: 100 µg/mL
- CMI [2]: 30 µg/mL
- CMI (Streptococcus Gr. D): 200 µg/mL
- CMI (Pseudomonas fluorescens): 3 µg/mL
- CMI (Enterobacter aerogenes): 25 µg/mL
- CMI (Enterococcus sp.): 12,5 µg/ml
- CMI (Pseudomonas aeruginosa): 12,5 µg/ml
- CMI (Staphylococcus aureus): 25 µg/mL
- CMI [3]: 25 µg/mL
- inhibition du cycle lytique du bactériophage lambda (bactériophage lambda; 250 µg/ml): > 95%
- Nbre de pfu/boîte (bactériophage lambda; in presence of pseudopeptide, 15 min pre-incubation at 37°C with phage, control without pseudopeptide 700 ±50): 40 ± 5 pfu/boîte
